Data set [1] in a line: Body weight of xenograft mice. It counts as in vivo, mouse. How it is done: All animal procedures were performed in accordance with the Guide for Care and Use of Laboratory Animals and National Yang-Ming University’s IACUC number was 1080110. Immunodeficient male mice (BALB/cAnNCrj-nu/nu, six weeks old, 20 gm) were provided by National Laboratory Animal Center (NLAC), NARLabs, Taiwan. Mice were group-housed (6 animals per cage) in individually ventilated cages (IVC) systems and had unlimited access to food and water. […] For establishment of xenografts, 2 × 10^6 SAS-EGFP-Fluc cells in 100 μL phosphate-buffered saline (PBS) were injected subcutaneously into the animal's right shoulder and 2 × 10^6 SAS-wt cells were injected into the left leg. Growth of the implanted tumors was monitored twice a week and tumor volumes were estimated from caliper measurements according to the following formula: tumor volume = (lengthÍwidth^2) Í0.523. When tumor size reached approximately 10 mm^3, the mice were randomized into four groups of five animals per group for the following treatments: (1) DMSO (1 ml/kg body weight), (2) Unc0642 (2.5 mg/kg body weight), (3) 2 Gy of radiation, (4) Unc0642 (2.5 mg/kg body weight) and 2 Gy of radiation. Mice were given Unc0642 (cat. SML1037, Sigma-Aldrich, St. Louis, MO) intraperitoneally (i.p) every two days for 3 times. […]

In data set [2] the test system is SAS cells. In words: AlamarBlue cell viability assay. The settings on record: for IC50: Homo sapiens, AlamarBlue. It counts as cell-based, human. How it is done:
Figure 3 In vitro induction of EMT and stemness with Unc0642/IR. (a) SAS cells were treated with indicated concentration of Unc0642 and Unc0642 + 2 Gy of radiation for 72 h respectively. Cell viability was assessed by AlamarBlue assay. All data were normalized to cells without treatment. Data are presented as mean ± SD. IC50 was calculated using SigmaPlot12 software. (b) Western blot analysis of CSC and EMT markers in SAS cells treated with different concentration of Unc 0642 (1.25 and 10 µM) and different dose of radiation (2 and 4 Gy) respectively. Internal control: b-actin. Right graph: the quantification of protein expression levels normalized against b-actin levels in each sample. *p < 0.05; **p < 0.01 by Student’s t-test. The blots were cropped from different parts of the same gel. The original blots and all replicates are presented in Supplementary Fig. 4.
SAS-wt, SAS-EGFP-Fluc and SAS-E2-crimson-P2A::ttksr39 cells were seeded in a 96-well cell culture plate at the density of 5x10^3 cells/well overnight and incubated with serial dilutions of Unc0642 (the concentration of Unc0642 was 0.625, 1.25, 2.5, […], 5, 10, 20, 40, 80 μM respectively in culture medium). Plates were then incubated 48 hours at 37 °C under 5% CO2. Relative cell viabilities were determined by a AlamarBlue assay. 10% v/v of AlamarBlue (Serotec, Oxon, UK) was added into each well and the well containing culture medium without cells served as negative controls. Absorbance was measured at 570 nm against a reference wavelength at 600 nm using a microplate reader (Tecan, Infinite 200 pro, Zürich, Switzerland) after incubation for 24 h at 37°C. Results were presented as the percentage of AlamarBlue reduction and were corrected to background values of negative controls. IC50 values were calculated from a log([drug]) versus normalized response curve fit using SigmaPlot12.
(Alamar Blue is a resazurin reagent that responds to reducing activity.)

Where two headings read alike, the source gives them in different places.

As for `COc1cc2c(NC3CCN(C(C)C)CC3)nc(N3CCC(F)(F)CC3)nc2cc1OCCCN1CCCC1` [Unc0642], in data set [1] (Unc0642 2.5 mg/kg i.p. alone), the “Body weight versus DMSO control” value is “no difference”. For the same molecule, in data set [1] (combined Unc0642 2.5 mg/kg i.p. and 2 Gy IR, until end point, p < 0.001), the Body weight result was “Drastic weight loss”. In data set [2] (1.25 μM Unc0642, single treatment or combined with IR, SAS cells), the “Effect on cell proliferation at the peak dose” value was “could induce cell proliferation”. In addition, the IC50 in data set [2] (SAS cells exposed to Unc0642 alone for 72 h, normalized to untreated cells, SigmaPlot12 fit, read-out: IC50 (50% inhibition concentration), cell viability) is 12.1 µM; in data set [2] (SAS cells, Unc0642 combined with 4 Gy of IR, 72 h, read-out: IC50, cell viability, combined with IR), 4.79 µM.
